Laboratory results published in patent US7902237B2, “Heterocyclic compounds as pharmaceutical agents” (Exelixis, Inc., priority 2004, dated 2011).
Like-named read-outs stand apart in the source and are kept apart here.

Legend:
[1] = molecular target: T1, full length human farnesoid X receptor (Homo sapiens, UniProt Q96RI1); test: farnesoid X receptor/ECREx7 co-transfection assay; format: cell-based; conditions: for EC50: CV-1 cells; for Emax: agonist efficacy relative to chenodeoxycholic acid (CDCA) maximum response
T1 construct: CMX-farnesoid X receptor (full length human farnesoid X receptor); expressed in transfected cells; host or cells: CV-1 African Green Monkey Kidney cells
T1 sequence (Q96RI1 1-472 isoform Q96RI1-2): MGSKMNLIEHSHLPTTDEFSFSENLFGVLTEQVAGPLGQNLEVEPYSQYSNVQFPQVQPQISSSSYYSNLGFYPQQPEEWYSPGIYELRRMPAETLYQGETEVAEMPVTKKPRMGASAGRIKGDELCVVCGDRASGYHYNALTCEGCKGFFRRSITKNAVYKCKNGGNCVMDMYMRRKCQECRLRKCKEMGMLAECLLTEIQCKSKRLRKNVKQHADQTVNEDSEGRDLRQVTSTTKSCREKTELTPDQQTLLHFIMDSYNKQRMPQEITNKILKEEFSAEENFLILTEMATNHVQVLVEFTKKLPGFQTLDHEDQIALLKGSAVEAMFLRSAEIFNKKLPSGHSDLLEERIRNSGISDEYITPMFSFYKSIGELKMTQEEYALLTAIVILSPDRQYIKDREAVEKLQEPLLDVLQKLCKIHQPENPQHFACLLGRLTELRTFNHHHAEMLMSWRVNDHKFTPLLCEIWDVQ
T1 sequence (P19793 1-462 partner): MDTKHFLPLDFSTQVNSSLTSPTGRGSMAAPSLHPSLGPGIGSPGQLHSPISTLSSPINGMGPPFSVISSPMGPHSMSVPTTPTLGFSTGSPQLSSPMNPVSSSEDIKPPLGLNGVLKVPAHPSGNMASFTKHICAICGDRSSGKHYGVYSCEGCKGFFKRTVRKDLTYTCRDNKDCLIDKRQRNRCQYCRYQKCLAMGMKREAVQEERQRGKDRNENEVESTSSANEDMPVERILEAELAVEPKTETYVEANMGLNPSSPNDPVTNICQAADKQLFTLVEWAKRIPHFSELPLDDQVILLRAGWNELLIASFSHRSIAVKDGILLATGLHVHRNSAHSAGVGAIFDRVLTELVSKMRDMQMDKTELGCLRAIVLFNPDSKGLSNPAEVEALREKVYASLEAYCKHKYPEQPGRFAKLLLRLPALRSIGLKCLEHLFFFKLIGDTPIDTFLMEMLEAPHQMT
Method: (§1) The basic co-transfection protocol for measuring the farnesoid X receptor activity is as follows. CV-1 African Green Monkey Kidney cells were plated 24 hours before transfection to achieve approximately 70-80 percent confluency. Cells were transfected with the following expression vectors, CMX-farnesoid X receptor (full length human farnesoid X receptor), CMX-7RXRα (full length human RXR), Luc12 (ECREx7-Tk-Luciferase) luciferase reporter gene construct. (See WO 00/76523, Venkateswaran et al., (2000) J. Biol. Chem. 275 14700-14707). A CMX-β-Galactosidase expression vector was used as a transfection control. The transfection reagent used was DOTAP (Boehringer Mannheim). Cells were incubated with the DOTAP/DNA mixture for 5 hours after which the cells were harvested and plated onto either 96 well or 384 well plates containing the appropriate concentration of test compound. The assay was allowed to continue for an additional 18-20 hours, after which the cells were lysed, with lysis buffer (1% triton X 100, 10% glycerol, 5 mM Dithiothreitol, 1 mM EGTA, 25 mM Tricine, pH 7.8) and the luciferase activity measured in the presence of Luciferase assay buffer (0.73 mM ATP, 22.3 mM Tricine, 0.11 mM EGTA, 0.55 mM Luciferin, 0.15 mM Coenzyme A, 0.5 mM HEPES, 10 mM Magnesium sulphate) on a standard luminomter plate reader (PE Biosystems, NorthStar Reader), using recommended operating instructions and conditions
(§2) Both the farnesoid X receptor/ECREx7 co-transfection assay (Example 9) and the TR-FRET assay (Example 8) can be used to establish the EC50/IC50 values for potency and percent activity or inhibition for efficacy. Efficacy defines the activity of a compound relative to a high control (chenodeoxycholic acid, CDCA) or a low control (DMSO/vehicle). The dose response curves are generated from an 8 point curve with concentrations differing by ½ LOG units. Each point represents the average of 4 wells of data from a 384 well plate. The curve for the data is generated by using the equation: Y=Bottom+(Top−Bottom)/(1+10^((Log EC50−X)*HillSlope))
The EC50/IC50 is therefore defined as the concentration at which an agonist or antagonist elicits a response that is half way between the Top (maximum) and Bottom (baseline) values. The EC50/IC50 values represented are the averages of at least 3 independent experiments. The determination of the relative efficacy or % control for an agonist is by comparison to the maximum response achieved by chenodeoxycholic acid that is measured individually in each dose response experiment. […]

[2] = molecular target: T2, farnesoid X receptor (Homo sapiens, UniProt Q96RI1); test: one or more of the in vitro assays described herein (TR-FRET assay and/or co-transfection assay); conditions: for Emax: agonist efficacy relative to CDCA, read-out: efficacy (first value, goes with EC50); for IC50: antagonist mode against CDCA, read-out: IC50 (apparent partial agonist activity); for EC50: read-out: EC50 (apparent partial agonist activity)
T2 sequence (Q96RI1 258-485): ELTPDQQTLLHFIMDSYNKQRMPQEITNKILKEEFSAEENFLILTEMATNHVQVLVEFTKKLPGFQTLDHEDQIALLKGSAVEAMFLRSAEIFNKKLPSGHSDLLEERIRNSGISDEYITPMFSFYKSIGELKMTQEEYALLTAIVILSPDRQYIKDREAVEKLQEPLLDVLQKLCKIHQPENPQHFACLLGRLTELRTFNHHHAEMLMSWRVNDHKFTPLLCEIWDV
Method: The TR-FRET assay was performed by incubating 8 nM of GST-farnesoid X receptor-LBD (comprising […] fused in frame to the farnesoid X receptor ligand binding domain, (amino acids 244-471 of the human farnesoid X receptor)), 8 nM of Europium-labeled anti-GST antibody (Wallac/PE Life Sciences Cat#AD0064), 16 nM biotin-SRC-1 peptide [5′-biotin-[…]-CONH2], 20 nM APC-SA [allophycocyanin conjugated streptavidin] (Wallac/PE Life Sciences, Cat# AD0059A) in FRET assay buffer (20 mM KH2PO4/K2HPO4 (pH 7.3), 150 mM NaCl, 2 mM CHAPS, 2 mM EDTA, 1 mM DTT) in the presence of the test compound(s) for 2-4 hours at room temperature in a 384 well assay plate. Data was collected using an LJL Analyst using the standard operating instructions and conditions with readings at emission wavelengths of 615 nm and 665 nm after a delay of 65 μs and an excitation wavelength of 330 nm.
as §1, §2
The EC50/IC50 is therefore defined as the concentration at which an agonist or antagonist elicits a response that is half way between the Top (maximum) and Bottom (baseline) values. The EC50/IC50 values represented are the averages of at least 3 independent experiments. The determination of the relative efficacy or % control for an agonist is by comparison to the maximum response achieved by chenodeoxycholic acid that is measured individually in each dose response experiment.
For the antagonist assay, CDCA is added to each well of a 384 well plate to elicit a response. The % inhibition for each antagonist is therefore a measurement of the inhibition of the activity of CDCA. In this example, 100% inhibition would indicate that the activity of CDCA has been reduced to baseline levels, defined as the activity of the assay in the presence of DMSO only.

[3] = read-out: agonist activity EC50

Row | Structure (SMILES) | EC50 [1, 3] | Emax [1] | Emax [2] | IC50 [2] | EC50 [2] | EC50 ([1]; read-out: agonist activity)
1 | CCNc1ccc(C(C)=O)cc1/N=C1\S/C(=C\N(C)c2ccccc2)C(=O)N1Cc1ccccc1 [No. 2, (2Z,5Z)-2-{[5-acetyl-2-(ethylamino)phenyl]imino}-5-{[methyl(phenyl)amino]methylidene)-3-(phenylmethyl)-1,3-thiazolidin-4-one] | ≤ 1 µM | 50 to 100% |  |  |  | 
2 | CCNc1ccc(C(C)=O)cc1/N=C1\S/C(=C\N(C)Cc2ccccc2)C(=O)N1Cc1ccccc1 [No. 4, (2Z,5Z)-2-{[5-acetyl-2-(ethylamino)phenyl]imino}-5-{[methyl(phenylmethyl)amino]methylidene}-3-(phenylmethyl)-1,3-thiazolidin-4-one] | ≤ 1 µM | 50 to 100% | 40 to 50% | 0.3 to 0.5 µM | ~1 µM | 
3 | CCNc1ccc(C#N)cc1/N=C1\S/C(=C\N2CCc3ccccc32)C(=O)N1Cc1ccccc1 [No. 5, 3-{[(2Z,5Z)-5-(2,3-dihydro-1H-indol-1-ylmethylidene)-4-oxo-3-(phenylmethyl)-1,3-thiazolidin-2-ylidene]amino}-4-(ethylamino)benzonitrile] |  | ≥ 100% |  |  |  | < 0.2 µM
4 | CCNc1ccc(C(C)=O)cc1/N=C1\S/C(=C\N2CCc3ccccc32)C(=O)N1Cc1ccccc1 [No. 6, (2Z,5Z)-2-{[5-acetyl-2-(ethylamino)phenyl]imino}-5-(2,3-dihydro-1H-indol-1-ylmethylidene)-3-(phenylmethyl)-1,3-thiazolidin-4-one] |  | > 100% |  |  |  | < 0.1 µM
5 | CC(=O)c1cccc(/N=C2\S/C(=C\N3CCc4ccccc43)C(=O)N2Cc2ccco2)c1 [No. 7, (2Z,5Z)-2-[(3-acetylphenyl)imino]-5-(2,3-dihydro-1H-indol-1-ylmethylidene)-3-(furan-2-ylmethyl)-1,3-thiazolidin-4-one] | ≤ 1 µM | 50 to 100% |  |  |  | 
6 | CC(=O)Nc1ccc(/N=C2\S/C(=C\N3CCc4ccccc43)C(=O)N2Cc2ccco2)cc1 [No. 8, N-(4-{[(2Z,5Z)-5-(2,3-dihydro-1H-indol-1-ylmethylidene)-3-(furan-2-ylmethyl)-4-oxo-1,3-thiazolidin-2-ylidene]amino}phenyl)acetamide] | ≤ 1 µM | 50 to 100% |  |  |  | 

Continued, values first:

Row | EC50 [1, 3] | Emax [1] | Emax [2] | IC50 [2] | EC50 [2] | EC50 ([1]; read-out: agonist activity) | Structure (SMILES)
7 |  |  | 40 to 50% | 0.3 to 0.5 µM | ~1 µM |  | CCNc1ccc(C#N)cc1/N=C1\S/C(=C\N(C)c2ccc(OC)cc2)C(=O)N1Cc1ccccc1 [No. 12, 4-(ethylamino)-3-{[(2Z,5Z)-5-({methyl[4-(methyloxy)phenyl]amino}methylidene)-4-oxo-3-(phenylmethyl)-1,3-thiazolidin-2-ylidene]amino} benzonitrile]
8 |  | ≥ 100% |  |  |  | < 0.2 µM | CCNc1ccc(C(C)=O)cc1/N=C1\S/C(=C\N(C)c2cccc(OC)c2)C(=O)N1Cc1ccccc1 [No. 15, (2Z,5Z)-2-{[5-acetyl-2-(ethylamino)phenyl]imino}-5-({methyl[3-(methyloxy)phenyl]amino}methylidene)-3-(phenylmethyl)-1,3-thiazolidin-4-one]
9 | ≤ 1 µM | 50 to 100% |  |  |  |  | CCNc1ccc(C(C)=O)cc1/N=C1\S/C(=C\N(C)CCc2ccccc2)C(=O)N1Cc1ccccc1 [No. 19, (2Z,5Z)-2-{[5-acetyl-2-(ethylamino)phenyl]imino}-5-{[methyl(2-phenylethyl)amino]methylidene}-3-(phenylmethyl)-1,3-thiazolidin-4-one]
10 | ≤ 1 µM | 50 to 100% |  |  |  |  | CCNc1ccc(C(C)=O)cc1/N=C1\S/C(=C\c2ccccc2)C(=O)N1Cc1ccccc1 [No. 23]
11 | ≤ 1 µM | 50 to 100% |  |  |  |  | CCNc1ccc(C(C)=O)cc1/N=C1\S/C(=C\c2ccco2)C(=O)N1Cc1ccccc1 [No. 24, (2Z,5Z)-2-{[5-acetyl-2-(ethylamino)phenyl]imino}-5-(furan-2-ylmethylidene)-3-(phenylmethyl)-1,3-thiazolidin-4-one]
